Results: ChEMBL document CHEMBL4152281, “Synthesis, characterization and biological evaluation of tertiary sulfonamide derivatives of pyridyl-indole based heteroaryl chalcone as potential carbonic anhydrase IX inhibitors and anticancer agents” (Eur J Med Chem, 2018)

Assays:
HEK293 = test: Antiproliferative activity against HEK293 cells after 48 hrs by MTT assay; format: cell-based; details: Homo sapiens, HEK293, 48 h
MCF7 [1] = test: Antiproliferative activity against human MCF7 cells after 48 hrs by MTT assay; format: functional, cell-based
HepG2 = test: Antiproliferative activity against human HepG2 cells after 48 hrs by MTT assay; format: functional, cell-based; details: HepG2, 48 h
Carbonic anhydrase 9 = Carbonic anhydrase 9 (Homo sapiens, UniProt Q16790); test: Inhibition of human carbonic anhydrase 9 expressed in Escherichia coli BL21 D3 strain using p-nitrophenyl acetate as substrate by UV/visible spectrophotometry
MCF7 [2] = test: Induction of apoptosis in human MCF7 cells assessed as late apoptotic cells at IC50 after 24 to 48 hrs by Annexin V-FITC/7-AAD dual staining based flow cytometry (reference value: 1.14%); format: functional
MCF7 [3] = test: Induction of apoptosis in human MCF7 cells assessed as necrotic cells at IC50 after 24 to 48 hrs by Annexin V-FITC/7-AAD dual staining based flow cytometry (reference value: 0.20%); format: functional
MCF7 [4] = test: Induction of apoptosis in human MCF7 cells assessed as viable cells at IC50 after 24 to 48 hrs by Annexin V-FITC/7-AAD dual staining based flow cytometry (reference value: 95.8%); format: functional
MCF7 [5] = test: Induction of apoptosis in human MCF7 cells assessed as early apoptotic cells at IC50 after 24 to 48 hrs by Annexin V-FITC/7-AAD dual staining based flow cytometry (reference value: 2.74%); format: functional
Carbonic anhydrase 2 = Carbonic anhydrase 2 (Homo sapiens, UniProt P00918); test: Inhibition of human carbonic anhydrase 2 expressed in Escherichia coli BL21 D3 strain using p-nitrophenyl acetate as substrate by UV/visible spectrophotometry
[6] = Homo sapiens, MCF7, 48 h, read-out: IC50

| Compound | IC50 (MCF7 [1]; [6]) | IC50 (HepG2) | IC50 (Carbonic anhydrase 9) | IC50 (MCF7 [1]; mcf7) | IC50 (Carbonic anhydrase 2) | IC50 (HEK293) | Activity (MCF7 [2]) | Activity (MCF7 [3]) | Activity (MCF7 [4]) | Activity (MCF7 [5]) |
| --- | --- | --- | --- | --- | --- | --- | --- | --- | --- | --- |
| O=C(/C=C/c1c[nH]c2ccccc12)c1ccncc1 | 45.3 µM | 49.3 µM |  |  |  | > 150 µM |  |  |  |  |
| Cc1ccc(S(=O)(=O)n2cc(/C=C/C(=O)c3ccncc3)c3ccccc32)cc1 | 48.9 µM | 44.8 µM | 29.9 µM |  |  | > 150 µM |  |  |  |  |
| CCCS(=O)(=O)n1cc(/C=C/C(=O)c2ccncc2)c2ccccc21 | 52.4 µM | 46.2 µM | 44.5 µM |  | > 100 µM | > 150 µM |  |  |  |  |
| O=C(/C=C/c1cn(S(=O)(=O)c2cccc([N+](=O)[O-])c2)c2ccccc12)c1ccncc1 | 36.3 µM | 42.6 µM | 37.6 µM |  |  | > 150 µM |  |  |  |  |
| O=C(/C=C/c1cn(S(=O)(=O)c2cccc3ccccc23)c2ccccc12)c1ccncc1 | 58 µM | 62.9 µM | 44.1 µM |  |  | > 150 µM |  |  |  |  |
| O=C(/C=C/c1cn(S(=O)(=O)c2ccc(Cl)cc2)c2ccccc12)c1ccncc1 | 37.5 µM | 35.1 µM | 14.4 µM |  |  | > 150 µM |  |  |  |  |
| O=C(/C=C/c1cn(S(=O)(=O)c2ccc([N+](=O)[O-])cc2)c2ccccc12)c1ccncc1 |  |  | 0.15 µM |  |  |  |  |  |  |  |

Further lines, with some results ahead:

| IC50 (MCF7 [1]; [6]) | IC50 (HepG2) | IC50 (Carbonic anhydrase 9) | IC50 (MCF7 [1]; mcf7) | IC50 (Carbonic anhydrase 2) | Compound | IC50 (HEK293) | Activity (MCF7 [2]) | Activity (MCF7 [3]) | Activity (MCF7 [4]) | Activity (MCF7 [5]) |
| --- | --- | --- | --- | --- | --- | --- | --- | --- | --- | --- |
| 12.2 µM | 14.8 µM | 0.13 µM | Dose-dependent effect |  | O=C(/C=C/c1cn(S(=O)(=O)c2ccc(Cl)cc2Cl)c2ccccc12)c1ccncc1 | > 150 µM | 10% | 0.53% | 10.6% | 78.8% |
| 36.9 µM | 31.7 µM | 57.3 µM |  |  | O=C(/C=C/c1cn(S(=O)(=O)c2ccccc2[N+](=O)[O-])c2ccccc12)c1ccncc1 | > 150 µM |  |  |  |  |
| 24 µM | 27 µM | 0.15 µM | Dose-dependent effect |  | CC(C)(C)c1ccc(S(=O)(=O)n2cc(/C=C/C(=O)c3ccncc3)c3ccccc32)cc1 | > 150 µM | 18.9% | 19.6% | 58.26% | 3.24% |
| 65.8 µM | 26 µM | 26.1 µM |  |  | COc1ccc(S(=O)(=O)n2cc(/C=C/C(=O)c3ccncc3)c3ccccc32)cc1 | > 150 µM |  |  |  |  |
|  | 18.7 µM |  |  |  | COc1cccc2c1C(=O)c1c(O)c3c(c(O)c1C2=O)C[C@@](O)(C(=O)CO)C[C@@H]3O[C@H]1C[C@H](N)[C@H](O)[C@H](C)O1 [DOXORUBICIN] | 143 µM |  |  |  |  |
